Consider one compound from US20100137398A1, “USE OF HDAC INHIBITORS FOR THE TREATMENT OF GASTROINTESTINAL CANCERS” (NOVARTIS AG, priority 2007, published 2010).

Assay [1] deals with Colo205 colon cancer xenograft. Nature of the assay: Colo205 colon cancer xenograft model, tumor growth inhibition and delay. Format: in vivo, Female athymic nude mice. To be noted: LBH589 30 mg/kg iv Mon/Wed/Fri for 3 weeks, 5-FU 75 mg/kg ip once a week for 3 weeks, or both. The method, then: Female athymic nude mice-were implanted subcutaneously with Col6205 colon cancer cells. When tumors reached a medan tumor volume of 220 mm3, mice were randomized into groups of 10 mice. Mice were treated with LBH589 at 30 mg/kg intravenously on Monday, Wednesday, Friday per week for 3 weeks, 75 mg/kg of 5-Fluorouracil intraperitoneally once a week for 3 weeks, or combination of the two agents. For tumor growth inhibition (FIG. 2A), compound activity was measured as the percent change in tumor volume of treated animals over control animals (% T/C). The percentage of regression was determined as the percent change in the final tumor volume at the end of the study over the starting tumor volume. For tumor growth delay (FIG. 2B), compound activity was measured as the change in median calculated time to the study end point (TTE), which was predefined as tumor volume of 1000 mm^3.

Assay [2] has as its system 19 pancreatic cancer cell lines. Briefly: Cell proliferation assays, panel of 19 pancreatic cancer cell lines, 6 days. Type of assay: cell-based. To be noted: 6 days treatment. The method, then: A panel of 19 pancreatic cancer cell lines was independently assessed in cell proliferation assays. Cells were treated with DMSO vehicle control or varying concentrations of LBH589 for 6 days.

Molecules are shown by their SMILES.

Consider `Cc1[nH]c2ccccc2c1CCNCc1ccc(/C=C/C(=O)NO)cc1` [LBH589, N-hydroxy-3-[4-[[[2-(2-methyl-1H-indol-3-yl)ethyl]-amino]methyl]phenyl]-2E-2-propenamide], for which, in assay [1], the “tumor growth inhibition (TGI) and tumor growth delay (TGD)” value was “led to tumor growth inhibition (TGI) and tumor growth delay (TGD)”. Besides, the “Median TTE (time to study end point, tumor volume of 1000 mm^3)” value in assay [1] (vehicle 39.5 days) was 32.9 days. The compound also registered an LD50 in assay [2] (18 of the 19 pancreatic cancer cell lines) below 1 µM. For the same compound, the IC50 values entry in assay [2] (all 19 pancreatic cancer cell lines) is “low nanomolar”.
